Values after ≈ are worked out from the molar mass of the structure shown.
Legend:
[1] = Clearance in Lewis rat at 1 mg/kg, iv measured up to 24 hrs by LC-MS/MS method; type: ADME, organism-based; conditions: in vivo
[2] = Clearance in Lewis rat at 5 mg/kg, po measured up to 24 hrs by LC-MS/MS method; type: ADME, organism-based; conditions: in vivo
[3] = Volume of distribution at steady state in Lewis rat at 1 mg/kg, iv measured up to 24 hrs by LC-MS/MS method; type: ADME, organism-based; conditions: in vivo, read-out: Vdss
[4] = Distribution coefficient between octanol and aqueous buffer, logD of the compound in pH 7.2 buffer
[5] = Aqueous solubility of compound by HPLC analysis; type: physicochemical; conditions: buffer
[6] = Metabolic stability in rat liver microsomes assessed as compound remaining at 1 uM measured up to 120 mins in presence of NADPH by HPLC-MS/MS analysis; type: ADME, Microsome; conditions: read-out: Stabilty
[7] = MRT in Lewis rat at 5 mg/kg, po measured up to 24 hrs by LC-MS/MS method; type: ADME, organism-based; conditions: in vivo
[8] = MRT in Lewis rat at 1 mg/kg, iv measured up to 24 hrs by LC-MS/MS method; type: ADME, organism-based; conditions: in vivo
[9] = Half life in Lewis rat at 5 mg/kg, po measured up to 24 hrs by LC-MS/MS method; type: ADME, organism-based; conditions: in vivo
[10] = Tmax in Lewis rat at 5 mg/kg, po measured up to 24 hrs by LC-MS/MS method; type: ADME, organism-based; conditions: in vivo
[11] = AUC in Lewis rat at 1 mg/kg, iv measured up to 24 hrs by LC-MS/MS method; type: ADME, organism-based; design: route intravenous, dose 1 mg/kg, time <=24; conditions: in vivo
[12] = Cmax in Lewis rat at 5 mg/kg, po measured up to 24 hrs by LC-MS/MS method; type: ADME, organism-based; design: route oral, dose 5 mg/kg, time <=24; conditions: in vivo
[13] = AUC in Lewis rat at 5 mg/kg, po measured up to 24 hrs by LC-MS/MS method; type: ADME, organism-based; design: route oral, dose 5 mg/kg, time <=24; conditions: in vivo
[14] = Volume of distribution at steady state in Lewis rat at 5 mg/kg, po measured up to 24 hrs by LC-MS/MS method; type: ADME, organism-based; conditions: in vivo
[15] = Half life in Lewis rat at 1 mg/kg, iv measured up to 24 hrs by LC-MS/MS method; type: ADME, organism-based; conditions: in vivo
[16] = Oral bioavailability in Lewis rat at 5 mg/kg measured up to 24 hrs by LC-MS/MS method; type: ADME, organism-based; conditions: in vivo

With `CCS(=O)(=O)N1CC(CC#N)(n2cc(-c3ncnc4[nH]ccc34)cn2)C1` [BARICITINIB] the clearance [1] was 10.5 mL/min/kg, the clearance [2] was 23.2 mL/min/kg and the Vd [3] was 1.8 L/kg. The logD [4] was 0.24, the solubility [5] was 16.3 µg/mL (≈ 43.9 µM) and the remaining at 2 h, 1 µM [6] was 96.1%. It also gave an MRT [7] of 4.36 h, an MRT [8] of 1.34 h and a half-life [9] of 2.43 h. It also gave a Tmax [10] of 1 h, an AUC at 24 h [11] of 1590 ng·h/mL and a Cmax [12] of 659 ng/mL. For the same compound, the AUC at 24 h [13] was 3610 ng·h/mL, the Vdss [14] was 4.88 L/kg and the half-life [15] was 1.96 h. It also gave a bioavailability [16] of 45.5%.

— ChEMBL document CHEMBL4811248, “Discovery of imidazopyrrolopyridines derivatives as novel and selective inhibitors of JAK2” (Eur J Med Chem, 2021)
